Active and inactive are the calls of the source. No rule for the calls is given here.
Target: Serine/threonine-protein kinase mTOR (Homo sapiens) (UniProt P42345)
Test: mTOR FRB domain ligand binding – biophysical, NMR (AID 1648)
Conditions: NMR binding to FRB domain, chemical shift

Sequence of Serine/threonine-protein kinase mTOR (Homo sapiens) (P42345 2015-2114): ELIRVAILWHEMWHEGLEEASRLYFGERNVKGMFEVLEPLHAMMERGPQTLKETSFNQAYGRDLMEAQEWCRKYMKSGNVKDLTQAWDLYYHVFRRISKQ

| SMILES | Kd |
| --- | --- |
| C/C=C(/C)C(=O)O[C@@H]1[C@H](OC(C)=O)[C@@]2(CO)C(CC1(C)C)C1=CCC3[C@@]4(C)CC[C@H](O[C@@H]5O[C@H](C(=O)O)[C@@H](O[C@@H]6O[C@H](CO)[C@@H](O)[C@H](O)[C@H]6O)[C@H](O)[C@H]5O[C@@H]5O[C@H](CO)[C@@H](O)[C@H](O)[C@H]5O)[C@](C)(CO)C4CC[C@@]3(C)[C@]1(C)C[C@H]2O (stereo not given in full) | > 4 mM (inactive) |
| Nc1cccc2cccnc12 | > 4 mM (inactive) |
| Cc1cc(NC(=O)Cc2c(F)cccc2Cl)no1 | > 4 mM (inactive) |
| CC1(C)C=Cc2cc3ccc(=O)oc3cc2O1 | > 4 mM (inactive) |
| Cc1[nH]c2ccccc2c1Cc1n[nH]c(=S)n1C | > 4 mM (inactive) |
| COc1cccc(Oc2ccc(N)cc2)c1 | > 4 mM (inactive) |
| c1ccc(Cc2nnc(-c3ccccc3)o2)cc1 | > 4 mM (inactive) |
| N=c1c2c3c(sc2ncn1N)CCCC3 | > 4 mM (inactive) |
| COn1c(=O)c(-c2ccco2)[n+]([O-])c2ccccc21 | > 4 mM (inactive) |
| Cc1csc(NC(=O)c2ccoc2C)n1 | > 4 mM (inactive) |
| Cn1cc(C(=O)N/N=C/c2ccccc2)ccc1=O | > 4 mM (inactive) |
| COC(=O)c1sccc1S(=O)(=O)N1CCCC1 | > 4 mM (inactive) |
| Cc1ccsc1/C=c1\sc2ncnn2c1=O | > 4 mM (inactive) |
| OCC1CCN(Cc2ccccc2)CC1 | > 4 mM (inactive) |
| NC(=O)c1sc2ccccc2c1Cl | > 4 mM (inactive) |
| [O-][n+]1cc(O)c(CN2CCOCC2)c2ccccc21 | > 4 mM (inactive) |
| Cc1cc(C)n(CCCC(=O)O)n1 | > 4 mM (inactive) |
| CN1CCC(NC(=O)c2c(F)cccc2Cl)CC1 | > 4 mM (inactive) |
| N#Cc1cccc(Cn2nnc(-c3ccccc3)n2)c1 | > 4 mM (inactive) |
| CNc1nc(N)c(C(=O)C(C)(C)C)s1 | > 4 mM (inactive) |
| CS(=O)(=O)N1CCN(C(=O)c2ccccc2)C1 | > 4 mM (inactive) |
| O=C(/C=C/c1ccc(O)c(O)c1)O[C@@H]1C[C@](O)(C(=O)O)C[C@@H](O)[C@H]1O | > 4 mM (inactive) |

| SMILES | Kd |
| --- | --- |
| COc1cc2ccc(=O)oc2c(OC)c1OC | > 4 mM (inactive) |
| O=C1CCC(=O)N1c1ccc(F)cc1 | > 4 mM (inactive) |
| O=C(NCc1ccccn1)c1ccc(Br)s1 | > 4 mM (inactive) |
| CC(=O)NC(=S)Nc1ccccc1C | > 4 mM (inactive) |
| NN1C(=O)CSC1=Nc1ccccc1 | > 4 mM (inactive) |
| O=C(OC[C@H]1O[C@H](OC(=O)c2cc(O)c(O)c(OC(=O)c3cc(O)c(O)c(O)c3)c2)[C@H](OC(=O)c2cc(O)c(O)c(OC(=O)c3cc(O)c(O)c(O)c3)c2)[C@@H](OC(=O)c2cc(O)c(O)c(OC(=O)c3cc(O)c(O)c(O)c3)c2)[C@@H]1OC(=O)c1cc(O)c(O)c(OC(=O)c2cc(O)c(O)c(O)c2)c1)c1cc(O)c(O)c(OC(=O)c2cc(O)c(O)c(O)c2)c1 | > 4 mM (inactive) |
| COC(=O)c1ccc(N2CCCC2)nc1 | > 4 mM (inactive) |
| O=C(c1ccccc1F)N1CCN(c2ccccc2)CC1 | > 4 mM (inactive) |
| NC(=O)CSc1nnc2ccc3ccccc3n12 | > 4 mM (inactive) |
| COc1cc(CNC(=O)CCCC/C=C/C(C)C)ccc1O | > 4 mM (inactive) |
| CC(=O)N1CCN(S(=O)(=O)c2ccccc2)CC1 | > 4 mM (inactive) |
| CC(=O)Nc1ccc(NC(C)=O)c(C(F)(F)F)c1 | > 4 mM (inactive) |
| CC(=O)O[C@H]1CCC2(C)C3=C(CCC2C1(C)C)[C@@]1(C)CC[C@@H](C(C)CCC=C(C)C)[C@]1(C)CC3 (stereo not given in full) | > 4 mM (inactive) |
| O=C(O)c1cccc(O)c1O | > 4 mM (inactive) |
| O=C1C=C(O)c2ccccc2C1=O | > 4 mM (inactive) |
| COc1ncnc(N)c1[N+](=O)[O-] | > 4 mM (inactive) |
| COc1cc(C(=O)O[C@H]2CC[C@@]3(C)[C@@H]4CC[C@H]5[C@]6(O)C[C@H](O)[C@@]7(O)[C@@H](CN8C[C@@H](C)CC[C@H]8[C@@]7(C)O)[C@]6(O)C[C@@]53OC24O)cc(OC)c1OC | > 4 mM (inactive) |
| Nc1nonc1-c1nc2ccccc2[nH]1 | > 4 mM (inactive) |
| O=C(CSc1ncn[nH]1)c1ccc2c(c1)OCO2 | > 4 mM (inactive) |
| CC(=O)Nc1ccc(S(N)(=O)=O)cc1 | > 4 mM (inactive) |
| CNC(=O)n1ccc(C(=O)N2CCCCC2)n1 | > 4 mM (inactive) |
| O=C(Nc1ccccc1N1CCCC1)c1cccnc1 | > 4 mM (inactive) |

| SMILES | Kd |
| --- | --- |
| CSc1ncc(C(=O)O)n1Cc1ccccc1 | > 4 mM (inactive) |
| CCOC(=O)c1c(C)cc(O)c(C)c1O | > 4 mM (inactive) |
| O=c1nc(C(F)(F)F)nc2ccccn12 | > 4 mM (inactive) |
| CC(=O)O[C@H]1C[C@@H](OC(C)=O)C(C)(C)C2C[C@@H](OC(C)=O)[C@]3(C)C([C@H](OC(C)=O)C[C@@]4(C)[C@H](c5ccoc5)OC(=O)[C@H]5O[C@]543)[C@]21C (stereo not given in full) | > 4 mM (inactive) |
| NC(=O)C1CCN(C(=O)c2ccccc2F)CC1 | > 4 mM (inactive) |
| O=C(O)CCC1NCC2CC1CN1CCCCC21 (stereo not given) | > 4 mM (inactive) |
| C=CC(C1=CC(=O)C=CC1=O)c1ccccc1 (stereo not given) | > 4 mM (inactive) |
| COc1cccc(/C=N/N=C2/NC(=O)CS2)c1 | > 4 mM (inactive) |
| C=C1CCC(C2CC(=O)OC2=O)C(=O)CCC2C1CC2(C)C (stereo not given) | > 4 mM (inactive) |
| O=C(Nc1nncs1)c1c(F)cccc1F | > 4 mM (inactive) |
| O=c1ccn(Cc2ccccc2)c(=O)[nH]1 | > 4 mM (inactive) |
| Nc1cccc(C(=O)c2ccccc2)c1 | > 4 mM (inactive) |
| CCCc1cc(=O)[nH]c2nnc(SCC(C)=O)n12 | > 4 mM (inactive) |
| NS(=O)(=O)c1ccc(N2CCCC2=O)cc1 | > 4 mM (inactive) |
| Cn1ccc(NC(=S)Nc2cccc([N+](=O)[O-])c2)n1 | > 4 mM (inactive) |
| Cc1nn2c3ccccc3nc2n(Cc2ccccc2)c1=O | > 4 mM (inactive) |
| c1ccc(CNc2ncnc3nc[nH]c23)nc1 | > 4 mM (inactive) |
| CC1=C2C(=CO[C@H](C)[C@H]2C)C(=O)C(C(=O)O)=C1O | > 4 mM (inactive) |
| Nc1c(C(=O)O)sc2ncccc12 | > 4 mM (inactive) |
| Cn1ccnc1SCc1cc(=O)[nH]c2ccccc12 | > 4 mM (inactive) |
| c1cc2c(cc1[C@H]1OC[C@H]3[C@@H]1CO[C@H]3c1ccc3c(c1)OCO3)OCO2 | > 4 mM (inactive) |
| O=C1NC(=O)C(C(=S)Nc2ccccc2)C(=O)N1 | > 4 mM (inactive) |

| SMILES | Kd |
| --- | --- |
| Cc1nc(N2CCOCC2)[nH]c(=O)c1C | > 4 mM (inactive) |
| O=C1NC(=O)C(Cc2ccccc2)C(=O)N1 | > 4 mM (inactive) |
| O=C1CC(=O)N(c2ccccc2)c2ccccc21 | > 4 mM (inactive) |
| CC(=O)Nc1ccc(S(=O)(=O)NC(N)=O)cc1 | > 4 mM (inactive) |
| CC[C@@H]1[C@@H](O)N2C3C[C@H]1C1C(O)[C@]4(C[C@@H]12)c1ccccc1N(C)[C@@H]34 (stereo not given in full) | > 4 mM (inactive) |
| O=C(Nc1ccon1)c1cccc(C(F)(F)F)c1 | > 4 mM (inactive) |
| O=C1CSC(=Nc2cc(Cl)ccc2Cl)N1 | > 4 mM (inactive) |
| COC(=O)c1cc2cc(N)ccc2s1 | > 4 mM (inactive) |
| Cc1ccc(NC(=O)N2CCC(C(N)=O)CC2)cc1 | > 4 mM (inactive) |
| CC(=O)Nc1ccc(S(=O)(=O)N2CCN=C2C)cc1 | > 4 mM (inactive) |
| O=C1C2=C(SCCS2)C(=O)N1CCCO | > 4 mM (inactive) |
| CC(C)c1ccc(NC(=O)C(N)=O)cc1 | > 4 mM (inactive) |
| CC(C)c1ccc2c(c1)CCC1C(C)(C(N)=O)CCCC21C (stereo not given) | > 4 mM (inactive) |
| COn1c(=O)c(C)[n+]([O-])c2ccccc21 | > 4 mM (inactive) |
| CNc1nc(SC)nc(N2CCOCC2)n1 | > 4 mM (inactive) |
| O=C(c1nc2ncccn2n1)N1CCc2ccccc2C1 | > 4 mM (inactive) |
| O=C1C=CC(=O)c2c(O)cccc21 | > 4 mM (inactive) |
| COc1cc(C(=S)N2CCOCC2)ccc1O | > 4 mM (inactive) |
| N#Cc1nc(-c2cccs2)oc1N1CCOCC1 | > 4 mM (inactive) |
| CCSc1nc2ccccc2n1CC(N)=O | > 4 mM (inactive) |
| CN1CCN(c2nc3c(c(=O)[nH]2)CCCC3)CC1 | > 4 mM (inactive) |
| CN(C)C(=S)Nc1nc2ccccc2s1 | > 4 mM (inactive) |

| SMILES | Kd |
| --- | --- |
| COC(=O)[C@H]1[C@H]2C[C@H]3c4[nH]c5ccccc5c4CCN3C[C@H]2CC[C@@H]1O | > 4 mM (inactive) |
| O=C(O)C12CC3CC(CC(O)(C3)C1)C2 | > 4 mM (inactive) |
| COc1ccc(S(=O)(=O)Nc2ccccn2)c(C)c1C | > 4 mM (inactive) |
| CNC(=O)COc1cccc2c1CCNC2=O | > 4 mM (inactive) |
| O=C(O)c1cccnc1 | > 4 mM (inactive) |
| COc1cc(/C=C2/NC(=S)NC2=O)cc(Cl)c1O | > 4 mM (inactive) |
| Cc1nn(-c2ccccc2)nc1C(=O)O | > 4 mM (inactive) |
| Nc1ncnc2c1ncn2C1O[C@H](COP(=O)(O)O)[C@@H](O)[C@H]1O (stereo not given in full) | > 4 mM (inactive) |
| Cc1cc(C(=O)NCc2ccccc2Br)no1 | > 4 mM (inactive) |
| O=S(=O)(Cc1ccccc1)N1CCCCCC1 | > 4 mM (inactive) |
| COc1cc(C)c(Cl)cc1S(=O)(=O)N(C)C | > 4 mM (inactive) |
| Cc1nc(-c2cc(C(=O)O)no2)cs1 | > 4 mM (inactive) |
| Nc1nncn1C(=O)c1ccccc1Cl | > 4 mM (inactive) |
| C=CCCCCCCCCCCCC(O)CC(O)COC(C)=O (stereo not given) (tested in a mixture with another compound) | > 4 mM (inactive) |
| O=C1CCC(=O)N1c1ccc(O)cc1 | > 4 mM (inactive) |
| Cc1oc(-c2ccccc2)cc1C(=O)O | > 4 mM (inactive) |
| COc1cc2occc2c2oc(=O)ccc12 | > 4 mM (inactive) |
| Nc1nc(=S)n2c(n1)oc1ccccc12 | > 4 mM (inactive) |
| CCC(=O)Nc1cccc(NC(C)=O)c1 | > 4 mM (inactive) |
| O=C(NC1=NCCS1)c1cccc(F)c1 | > 4 mM (inactive) |
| O=C1CNC(=O)N1c1cccc(Cl)c1 | > 4 mM (inactive) |
| COC(=O)c1scc(S(C)(=O)=O)c1-n1cccc1 | > 4 mM (inactive) |

From PubChem BioAssay AID1648 (Sanford-Burnham Center for Chemical Genomics, 2009)
